Here are results for 38 compounds from patent US20260098008A1, “COVALENT, CHEMOGENETIC ACTIVATORS FOR K2P POTASSIUM CHANNELS AND USES THEREOF” (THE REGENTS OF THE UNIVERSITY OF CALIFORNIA, priority 2022, published 2026).

The structures appear in SMILES notation. Changes are numbered by the printed parent chain.

In one assay the target is T1, K2P2.1 (TREK-1) (Mus musculus, UniProt P97438).
T1 construct: expressed in transfected cells; host or cells: Xenopus laevis oocytes injected with mRNA (pGEMHE/pMO vector)
T1 sequence (P97438 1-411 isoform P97438-2): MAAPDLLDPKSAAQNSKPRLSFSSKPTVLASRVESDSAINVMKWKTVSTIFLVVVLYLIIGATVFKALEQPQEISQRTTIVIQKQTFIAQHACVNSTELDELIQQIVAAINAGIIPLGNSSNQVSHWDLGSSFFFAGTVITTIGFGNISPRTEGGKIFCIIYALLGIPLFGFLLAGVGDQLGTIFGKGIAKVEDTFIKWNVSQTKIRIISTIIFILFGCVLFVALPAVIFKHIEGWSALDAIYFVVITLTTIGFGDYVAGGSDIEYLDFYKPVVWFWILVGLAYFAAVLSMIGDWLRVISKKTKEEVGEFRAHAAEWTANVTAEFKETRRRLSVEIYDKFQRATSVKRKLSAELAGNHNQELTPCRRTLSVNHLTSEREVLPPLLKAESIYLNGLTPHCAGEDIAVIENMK
Nature of the assay: Two-electrode voltage clamp (TEVC) in Xenopus oocytes. The class given is cell-based. As to conditions: for TREK-1 fold-activation: 20 uM, oocytes expressing TREK1; for TREK-1 activity class: Fold-activation at 20 uM in oocytes. The text has this:
(§1) Mouse K2P2.1 (TREK-1) (Genbank accession number: NP_034737.2), mouse K2P10.1 (TREK-2) (NM_001316665.1), mouse K2P4.1 (TRAAK) (NM_008431.3), human K2P4.1 (TRAAK) (NM_033310.2) and mouse K2P18.1(TRESK) (NM_207261.3) were used for this study. Point mutations were introduced by site-directed mutagenesis using custom primers and confirmed by sequencing before use. For studies using Xenopus oocytes, K2P channels were subcloned into a previously reported pGEMHE/pMO vector (46). For expression in HEK293 cells, mouse K2P2.1 (TREK-1) and mutants were expressed from a previously described pIRES2-EGFP vector in HEK293 cells (46,47). K2P2.1 (TREK-1) tandems were constructed by connecting the open reading frames for the individual subunits with a linker encoding the […] (SEQ ID NO: 19) sequence. Tandems used for HEK293 cells included an N-terminal HA tag ([…] (SEQ ID NO: 20)) on the first subunit.
(§2) Xenopus laevis oocytes were harvested according to UCSF IACUC Protocol AN129690 and digested using collagenase (Worthington Biochemical Corporation, #LS004183, 0.8-1.0 mg/mL) in Ca^21-free ND96 (96 mM NaCl, 2 mM KCl, 3.8 mM MgCl2, 5 mM HEPES pH 7.4) immediately post-harvest, as previously reported (31,33). Oocytes were maintained at 18° C. in ND96 (96 mM NaCl, 2 mM KCl, 1.8 mM CaCl2, 2 mM MgCl2, 5 mM HEPES pH 7.4) supplemented with antibiotics (100 units mL^−1 penicillin, 100 μg mL^−1 streptomycin, 50 μg mL^−1 gentimycin) and used for experiments within one week of harvest.
(§3) Defolliculated stage V-VI oocytes were microinjected with 0.5-36 ng mRNA and currents were recorded within 16-48 h hours of injection.
(§4) For recordings, oocytes were impaled with borosilicate recording microelectrodes (0.4-2.0 MΩ resistance) backfilled with 3 M KCl and were subjected to constant perfusion of ND96 at a rate of 3 ml min^−1. Recording solutions containing K2P activators were prepared immediately prior to use from DMSO stocks (20-100 mM), with final DMSO concentrations of 0.1%. Currents were evoked from a −80 mV holding potential followed by a 300 ms ramp from −150 mV to +50 mV. Data were recorded using a GeneClamp 500B amplifier (MDS Analytical Technologies) controlled by pCLAMP8 software (Molecular Devices), and digitized at 1 kHz using Digidata 1332 Å digitizer (MDS Analytical Technologies). For each recording, control solution (ND96) was perfused over a single oocyte until current was stable before switching to solutions containing the test compounds at various concentrations. Representative traces and dose response plots were generated in GraphPad Prism 9.
A general note: Two-electrode voltage clamp is typically applied to oocytes expressing channels or transporters.

In assay [1] the target is T2, TREK-1^CG* (K2P2.1 (TREK-1) S131C) (Mus musculus, UniProt P97438, S146C).
T2 construct: expressed in transfected cells; host or cells: Xenopus laevis oocytes injected with mRNA
T2 sequence (P97438 1-411 isoform P97438-2 S131C): T1 sequence (P97438 1-411 isoform P97438-2) with S131C
Nature of the assay: TEVC in Xenopus oocytes. The class given is cell-based. Particulars: for TREK-1 GC activity class: Fold-activation at 20 uM in oocytes; for Fold-activation (I activator/I control) / Reversibility of activation on washout: 20 μM, Xenopus oocytes; for Fold-activation (I activator/I control): 0 mV.
From the text: as §1, §2, §3, §4

Regarding `CC(NC(=O)c1ccc(NC(=O)NC(=O)C(Cl)(Cl)Cl)cc1)c1ccc(Cl)cc1Cl` (stereo not shown) [Entry 34], the TREK-1 fold-activation on K2P2.1 (TREK-1) was determined as 1.2 fold.
`CS(=O)(=O)Nc1ncc(C(=O)NCc2ccc(Cl)cc2Cl)cn1` [Entry 42]: at K2P2.1 (TREK-1), the TREK-1 fold-activation was 1.4 fold and the TREK-1 activity class result is reported as “+ (1.5-2.5 fold)”.
The like results for `O=C(NCc1ccc(Cl)cc1Cl)c1ccc(NCC2CO2)cc1` (stereo not shown) [Entry 27] were, in that order, 2.5 fold and “++ (2.5-5 fold)”.
With `CC1(C)OB(Cc2ccc(C(=O)NCc3ccc(Cl)cc3Cl)cc2)OC1(C)C` [Entry 26], at K2P2.1 (TREK-1), the TREK-1 fold-activation was determined as 1.6 fold and the TREK-1 activity class result is “+ (1.5-2.5 fold)”.
With `C=C(CCC(=O)O)C(=O)Nc1ccc(C(=O)NCc2ccc(Cl)cc2Cl)cc1` [Entry 3], the “TREK-1 GC activity class” value in assay [1] is “++ (2.5-5 fold)”. Further, the TREK-1 activity class result on K2P2.1 (TREK-1) is recorded as “++ (2.5-5 fold)”.
In the case of `CS(=O)(=O)Nc1ccc2c(c1)OCCN(Cc1ccc(Cl)cc1Cl)C2=O` [Entry 43], on K2P2.1 (TREK-1), the TREK-1 fold-activation is listed as 1.6 fold and the TREK-1 activity class entry is “+ (1.5-2.5 fold)”.
For the compound `O=C(NCc1ccc(Cl)cc1Cl)c1ccc(C(=O)N2CCS2(=O)=O)cc1` [Entry 48], the “TREK-1 GC activity class” value in assay [1] is on record as “+ (1.5-2.5 fold)”. Moreover, the TREK-1 activity class entry at K2P2.1 (TREK-1) is listed as “+ (1.5-2.5 fold)”.
Consider `CS(=O)(=O)Nc1ccc(C(=O)NCc2ccc(Cl)c(Cl)c2)cc1` [Entry 38], for which, at K2P2.1 (TREK-1), the TREK-1 fold-activation is 4.8 fold and the TREK-1 activity class entry was “+++ (>5 fold)”.
On to `C/C=C/C(=O)Nc1ccc(C(=O)NCc2ccc(Cl)cc2Cl)cc1` [Entry 4], for which, on K2P2.1 (TREK-1), the TREK-1 fold-activation is recorded as 1.2 fold.
On the same count and under the same terms, the value for `CC(NC(=O)c1ccc(NC(N)=O)cc1)c1ccc(Cl)cc1Cl` (stereo not shown) [Entry 31] was 1.3 fold.
In the case of `CC1=C(C)C(=O)N(c2ccc(C(=O)NCc3ccc(Cl)cc3Cl)cc2)C1=O` [CAT335b], in assay [1], the “Fold-activation (I activator/I control)” value came to 4.9±0.6 fold and the “Reversibility of activation on washout” value was “partially reversible with washout”. Besides, the “Reversibility of activation after extended incubation” value in assay [1] (1 hour incubation, washout with buffer) is reported as “remained reversible”.
Regarding `N#CCC(=O)Nc1ccc(C(=O)NCc2ccc(Cl)cc2Cl)cc1` [Entry 8], at K2P2.1 (TREK-1), the TREK-1 fold-activation was 3.6 fold and the TREK-1 activity class entry is “++ (2.5-5 fold)”.
The compound `Cc1cc(Cl)cc(Cl)c1CNC(=O)c1ccc(NS(C)(=O)=O)cc1` [Entry 40] gave a TREK-1 fold-activation on K2P2.1 (TREK-1) of 1.1 fold.
Same read-out and setting: the value for `O=C(NCc1ccc(Cl)cc1Cl)c1cccc(CB(O)O)c1` [Entry 23] was 1.0 fold.
On to `CS(=O)(=O)Nc1ccc(C(=O)NCc2ccc(Cl)c(F)c2)cc1` [Entry 39], for which, on K2P2.1 (TREK-1), the TREK-1 fold-activation was 1.5 fold and the TREK-1 activity class result is given as “+ (1.5-2.5 fold)”.
Consider `O=C(COCCOCCNC(=S)Nc1ccc2c(c1)C(=O)OC21c2ccc(O)cc2Oc2cc(O)ccc21)Nc1ccc(C(=O)NCc2ccc(Cl)cc2Cl)cc1` [Entry 46], for which, on K2P2.1 (TREK-1), the TREK-1 fold-activation turned out to be 4 fold and the TREK-1 activity class entry was “+++ (>5 fold)”.
As for `NC(=O)Nc1ccc(C(=O)NCc2ccc(Cl)cc2Cl)cc1` [Entry 35], at K2P2.1 (TREK-1), the TREK-1 fold-activation amounted to 6.4 fold and the TREK-1 activity class entry was “+++ (>5 fold)”.
On to `C#CCNC(=O)CCCC1=CC(=O)N(c2ccc(C(=O)NCc3ccc(Cl)cc3Cl)cc2)C1=O` [Entry 18], for which the “TREK-1 GC activity class” value in assay [1] is reported as “++ (2.5-5 fold)”.
With `CS(=O)(=O)Nc1ccc(C(=O)NCc2ccc(Br)cc2Cl)cc1` [Entry 41], on K2P2.1 (TREK-1), the TREK-1 fold-activation was 3.3 fold and the TREK-1 activity class result was “++ (2.5-5 fold)”.
With `C#CCNC(=O)CC(=C)C(=O)Nc1ccc(C(=O)NCc2ccc(Cl)cc2Cl)cc1` [Entry 5], at K2P2.1 (TREK-1), the TREK-1 fold-activation turned out to be 7.0 fold and the TREK-1 activity class entry is “+++ (>5 fold)”.
`CS(=O)(=O)Nc1ccc2c(c1)CCN(Cc1ccc(Cl)cc1Cl)C2=O` [Entry 45] registered a TREK-1 fold-activation at K2P2.1 (TREK-1) of 1.1 fold.
As to `O=C(NCc1ccc(Cl)cc1Cl)c1ccc(N2CCS2(=O)=O)cc1` [Entry 47], the “TREK-1 GC activity class” value in assay [1] is given as “+ (1.5-2.5 fold)”.
As for `C=CC(=O)Nc1cccc(C(=O)NCc2ccc(Cl)cc2Cl)c1` [Entry 10], at K2P2.1 (TREK-1), the TREK-1 fold-activation stood at 1.2 fold.
On to `CNS(=O)(=O)c1ccc(C(=O)NCc2ccc(Cl)cc2Cl)cc1` [Entry 36], for which, on K2P2.1 (TREK-1), the TREK-1 fold-activation came to 3 fold and the TREK-1 activity class result was “++ (2.5-5 fold)”.
On to `O=C(NCc1ccc(Cl)cc1Cl)c1cccc(B(O)O)c1` [Entry 24], for which, on K2P2.1 (TREK-1), the TREK-1 fold-activation stood at 1.3 fold and the TREK-1 activity class result is recorded as “+ (1.5-2.5 fold)”.
In the same order, the values of `C=C(CC(=O)O)C(=O)Nc1ccc(C(=O)NCc2ccc(Cl)cc2Cl)cc1` [Entry 6] are 1.7 to 2.5 fold and “+ (1.5-2.5 fold)”.
`CCOC(=O)CCCC1=CC(=O)N(c2ccc(C(=O)NCc3ccc(Cl)cc3Cl)cc2)C1=O` [Entry 19]: the “TREK-1 GC activity class” value in assay [1] is “++ (2.5-5 fold)”.
Take `O=C(NCc1ccc(Cl)cc1Cl)c1ccc(NC(=O)C(F)(F)F)cc1` [Entry 28]: at K2P2.1 (TREK-1), the TREK-1 fold-activation amounted to 3.3 fold and the TREK-1 activity class result is given as “++ (2.5-5 fold)”.
For `CS(=O)(=O)Nc1cccc(C(=O)NCc2ccc(Cl)cc2Cl)c1` [Entry 33], on K2P2.1 (TREK-1), the TREK-1 fold-activation was found to be 2.2 fold and the TREK-1 activity class entry is reported as “++ (2.5-5 fold)”.
For `C=CS(=O)(=O)Nc1ccc(C(=O)NCc2ccc(Cl)cc2Cl)cc1` [Entry 11], the TREK-1 fold-activation on K2P2.1 (TREK-1) came out at 1.3 fold.
For `C#CCN(C(=O)C=C)c1ccc(C(=O)NCc2ccc(Cl)cc2Cl)cc1` [Entry 9], on K2P2.1 (TREK-1), the TREK-1 fold-activation is given as 1.0 fold.
Same read-out and setting: the same measure for `CN(Cc1ccc(Cl)cc1Cl)C(=O)c1ccc(NS(C)(=O)=O)cc1` [Entry 30]: 1.0 fold.
For the compound `CC1=CC(=O)N(c2ccc(C(=O)NCc3ccc(Cl)cc3Cl)cc2)C1=O` [CAT335a], in assay [1], the “Fold-activation (I activator/I control)” value was found to be 7.4±0.7 fold and the “Reversibility of activation on washout” value is reported as “irreversibly activate”.
For the compound `O=C(/C=C/C(F)(F)F)Nc1ccc(C(=O)NCc2ccc(Cl)cc2Cl)cc1` [Entry 7], on K2P2.1 (TREK-1), the TREK-1 fold-activation turned out to be 1.0 fold.
On to `CNS(=O)(=O)c1ccc(C(=O)NCc2ccc(Cl)c(Cl)c2)cc1` [Entry 37], for which, at K2P2.1 (TREK-1), the TREK-1 fold-activation was determined as 1.5 fold and the TREK-1 activity class entry is on record as “+ (1.5-2.5 fold)”.
Compound `CC(NC(=O)c1ccc(NS(C)(=O)=O)cc1)c1ccc(Cl)cc1Cl` (stereo not shown) [Entry 32] showed a TREK-1 fold-activation at K2P2.1 (TREK-1) of 1.2 fold.
Turning to `O=C(NCc1ccc(Cl)cc1Cl)c1ccc(CB(O)O)cc1` [Entry 25], on K2P2.1 (TREK-1), the TREK-1 fold-activation turned out to be 1.5 fold and the TREK-1 activity class result is listed as “+ (1.5-2.5 fold)”.
For `CS(=O)(=O)Nc1ccc2c(c1)CCCN(Cc1ccc(Cl)cc1Cl)C2=O` [Entry 44], the TREK-1 fold-activation at K2P2.1 (TREK-1) came to 1.0 fold.
